Source: patent US7151105B2, “Inhibitors of Hepatitis C virus RNA-dependent RNA polymerase, and compositions and treatments using the same” (Agouron Pharmaceuticals, Inc., priority 2004, dated 2006)

The compounds below were run against T1, Recombinant HCV polymerase (Hepatitis C virus genotype 1b, UniProt P26663) (assay: biochemical). Settings: inhibition of polymerase-directed transcription; 30 min at 30° C; 30 nM enzyme; cpm data in triplicate.
T1 construct: Recombinant HCV polymerase was tested for its ability to perform primer/template-directed transcription
T1 sequence (P26663 2420-3010): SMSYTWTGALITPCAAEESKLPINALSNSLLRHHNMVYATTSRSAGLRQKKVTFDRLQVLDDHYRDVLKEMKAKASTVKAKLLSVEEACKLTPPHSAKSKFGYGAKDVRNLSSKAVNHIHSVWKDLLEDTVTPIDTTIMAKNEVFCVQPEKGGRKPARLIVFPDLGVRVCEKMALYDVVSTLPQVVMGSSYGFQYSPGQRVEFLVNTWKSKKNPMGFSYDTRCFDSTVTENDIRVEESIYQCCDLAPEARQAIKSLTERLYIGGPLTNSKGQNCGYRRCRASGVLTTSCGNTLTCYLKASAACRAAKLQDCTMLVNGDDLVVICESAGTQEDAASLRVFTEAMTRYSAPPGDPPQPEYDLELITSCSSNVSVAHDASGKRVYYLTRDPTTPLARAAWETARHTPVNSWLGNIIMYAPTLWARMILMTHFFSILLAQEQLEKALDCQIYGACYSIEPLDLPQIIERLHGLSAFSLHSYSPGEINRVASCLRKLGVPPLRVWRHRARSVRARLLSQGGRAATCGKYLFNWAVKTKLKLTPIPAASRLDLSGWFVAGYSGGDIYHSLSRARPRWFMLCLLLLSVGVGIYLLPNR
Description: The compounds described herein were tested for activity with HCV polymerase. Recombinant HCV polymerase was tested for its ability to perform primer/template-directed transcription in assays that contained 30 mM tris-HCl pH 7.2, 10 mM MgCl2, 20 mM NaCl, 1 mM Dithiothreitol (DTT), 0.05% Tween-20, 1% glycerol, 5 pmoles biotin-dG12 (primer), 0.5 pmoles poly(rC)300 (template), 1 μM GTP, 0.1–0.3 uCi α-^32P-GTP, and 2.5 pmoles (0.15 μg) HCV polymerase protein in a final volume of 75 μL. Reactions were initiated by addition of enzyme and incubated 30 minutes at 30° C. Reactions were stopped by addition of 33 mM EDTA, and polynucleotide products were collected by filtration through Diethylaminoethyl (DE) Filtermat papers (Wallac). Unincorporated triphosphate was removed by washing the filters with 5% dibasic sodium phosphate. The filters were counted in a Packard Tri-Lux Microbeta scintillation counter (Packard Bioscience, Meriden, Conn.). Compounds to be tested were added at various concentrations, e.g., 1 μm to 50 μm, from stocks in 10% DMSO-water (final DMSO is 1% in reaction).
IC50 values were estimated from the primary cpm data (collected in triplicate) using the formula: cpm (I)=cpm (no inhibitor)(1−([I]/([I]+IC50))). […] A percent inhibition value is expressed for a compound where it was impractical to calculate an IC50 value with available data.

IC50 [nM]	SMILES
54	CCC(C#N)(CC)c1ccc(CCC2(C3CCCC3)CC(O)=C(Cc3nc4nc(C)cc(C)n4n3)C(=O)O2)cc1C(F)(F)F (single isomer, unassigned) [A(155), 2-[4-(2-{2-Cyclopentyl-5-[(5,7-dimethyl[1,2,4]triazolo[1,5-a]pyrimidin-2-yl)methyl]-4-hydroxy-6-oxo-3,6-dihydro-2H-pyran-2-yl}ethyl)-2-(trifluoromethyl)phenyl]-2-ethylbutanenitrile]
5	CCc1cc(CCC2(C3CCCC3)CC(O)=C(Cc3nc4nc(C)cc(C)n4n3)C(=O)O2)ccc1CN1CCOCC1 (single isomer, unassigned) [A(156), 6-Cyclopentyl-3-[(5,7-dimethyl[1,2,4]triazolo[1,5-a]pyrimidin-2-yl)methyl]-6-{2-[3-ethyl-4-(morpholin-4-ylmethyl)phenyl]ethyl}-4-hydroxy-5,6-dihydro-2H-pyran-2-one]
10	CCc1cc(CCC2(C3CCCC3)CC(O)=C(Cc3nc4nc(C)cc(C)n4n3)C(=O)O2)ccc1CN1CCOCC1 (single isomer, unassigned) [A(157), 6-Cyclopentyl-3-[(5,7-dimethyl[1,2,4]triazolo[1,5-a]pyrimidin-2-yl)methyl]-{2-[3-ethyl-4-(morpholin-4-ylmethyl)phenyl]ethyl}-4-hydroxy-5,6-dihydro-2H-pyran-2-one]
3	Cc1cc(C)n2nc(CC3=C(O)CC(CCc4cc(CC(F)(F)F)nc(CC(F)(F)F)c4)(C4CCCC4)OC3=O)nc2n1 (single isomer, unassigned; enantiomer 1) [A(10), Enantiomer 1 of 6-{2-[2,6-Bis(2,2,2-trifluoroethyl)pyridin-4-yl]ethyl}-6-cyclopentyl-3-[(5,7-dimethyl[1,2,4]triazolo[1,5-a]pyrimidin-2-yl)methyl]-4-hydroxy-5,6-dihydro-2H-pyran-2-one]
2	CCc1cc(CCC2(C3CCCC3)CC(O)=C(Cc3nc4nc(C)cc(C)n4n3)C(=O)O2)c2c(c1O)CCO2 (single isomer, unassigned; enantiomer 1) [A(12), Enantiomer 1 of 6-Cyclopentyl-3-[(5,7-dimethyl[1,2,4]triazolo[1,5-a]pyrimidin-2-yl)methyl]-6-[2-(5-ethyl-4-hydroxy-2,3-dihydro-1-benzofuran-7-yl)ethyl]-4-hydroxy-5,6-dihydro-2H-pyran-2-one]
5	CCc1cc(CCC2(C3CCCC3)CC(O)=C(Cc3nc4nc(C)cc(C)n4n3)C(=O)O2)ccc1CO (single isomer, unassigned; enantiomer 1) [A(114), Enantiomer 1 of 6-cyclopentyl-3-[(5,7-dimethyl[1,2,4]triazolo[1,5-a]pyrimidin-2-yl)methyl]-6-{2-[3-ethyl-4-(hydroxymethyl)phenyl]ethyl}4-hydroxy-5,6dihydro-2H-pyran-2-one]
5	CCc1cc(CCC2(C3CCCC3)CC(O)=C(Cc3nc4nc(C)cc(C)n4n3)C(=O)O2)ccc1CC#N (single isomer, unassigned; enantiomer 1) [A(116), Enantiomer 1 of [4-(2-{2-Cyclopentyl-5-[(5,7-dimethyl[1,2,4]triazolo[1,5-a]pyrimidin-2-yl)methyl]-4-hydroxy-6-oxo-3,6dihydro-2H-pyran-2-yl}ethyl)-2-ethylphenyl]acetonitrile]
4	CCc1cc(CCC2(C3CCCC3)CC(O)=C(Cc3nc4nc(C)cc(C)n4n3)C(=O)O2)ccc1CNS(C)(=O)=O (single isomer, unassigned; enantiomer 1) [A(129), Enantiomer 1 of N-[4-(2-{2-cyclopentyl-5-[(5,7-dimethyl[1,2,4]triazolo[1,5-a]pyrimidin-2-yl)methyl]-4-hydroxy-6-oxo-3,6-dihydro-2H-pyran-2-yl}ethyl)-2-ethylbenzyl]methanesulfonamide]
35	CCc1cc(CCC2(C3CCCC3)CC(O)=C(Cc3nc4nc(C)cc(C)n4n3)C(=O)O2)ccc1CNC(C)=O (single isomer, unassigned; enantiomer 1) [A(132), Enantiomer 1 of N-[4-(2-[2-cyclopentyl-5-[(5,7-dimethyl[1,2,4]triazolo[1,5-a]pyrimidin-2-yl)methyl]-4-hydroxy-6-oxo-3,6-dihydro-2H-pyran-2-yl}ethyl)-2-ethylbenzyl]acetamide]
10	CCc1cc(CCC2(C3CCCC3)CC(O)=C(Cc3nc4nc(C)cc(C)n4n3)C(=O)O2)ccc1-c1ncco1 (single isomer, unassigned; enantiomer 1) [A(138), Enantiomer 1 of 6-Cyclopentyl-3-[(5,7-dimethyl[1,2,4]triazolo[1,5-a]pyrimidin-2-yl)methyl]-6-{2-[3-ethyl-4-(1,3-oxazol-2-yl)phenyl]ethyl}-4-hydroxy-5,6-dihydro-2H-pyran-2-one]
8	Cc1cc(C)n2nc(CC3=C(O)CC(CCc4cc(CC(F)(F)F)nc(CC(F)(F)F)c4)(C4CCCC4)OC3=O)nc2n1 (single isomer, unassigned; enantiomer 2) [A(11), Enantiomer 2 of 6-{2-[2,6-Bis(2,2,2-trifluoroethyl)pyridin-4-yl]ethyl}-6-cyclopentyl-3-[(5,7-dimethyl[1,2,4]triazolo[1,5-a]pyrimidin-2-yl)methyl]-4-hydroxy-5,6-dihydro-2H-pyran-2-one]
1	CCc1cc(CCC2(C3CCCC3)CC(O)=C(Cc3nc4nc(C)cc(C)n4n3)C(=O)O2)c2c(c1O)CCO2 (single isomer, unassigned; enantiomer 2) [A(13), Enantiomer 2 of 6-Cyclopentyl-3-[(5,7-dimethyl[1,2,4]triazolo[1,5-a]pyrimidin-2-yl)methyl]-6-[2-(5-ethyl-4-hydroxy-2,3-dihydro-1-benzofuran-7-yl)ethyl]-4-hydroxy-5,6dihydro-2H-pyran-2-one]
6	CCc1cc(CCC2(C3CCCC3)CC(O)=C(Cc3nc4nc(C)cc(C)n4n3)C(=O)O2)ccc1CO (single isomer, unassigned; enantiomer 2) [A(115), Enantiomer 2 6-cyclopentyl-3-[(5,7-dimethyl[1,2,4]triazolo[1,5-a]pyrimidin-2-yl)methyl]-6-{2-[3-ethyl-4-(hydroxymethyl)phenyl]ethyl}-4-hydroxy-5,6-dihydro-2H-pyran-2-one]
5	CCc1cc(CCC2(C3CCCC3)CC(O)=C(Cc3nc4nc(C)cc(C)n4n3)C(=O)O2)ccc1CC#N (single isomer, unassigned; enantiomer 2) [A(117), Enantiomer 2 of [4(2-{2-Cyclopentyl-5[(5,7-dimethyl[1,2,4]triazolo[1,5-a]pyrimidin-2-yl)methyl]-4-hydroxy-6-oxo-3,6dihydro-2H-pyran-2-yl}ethyl)-2-ethylphenyl]acetonitrile]
3	CCc1cc(CCC2(C3CCCC3)CC(O)=C(Cc3nc4nc(C)cc(C)n4n3)C(=O)O2)ccc1CNS(C)(=O)=O (single isomer, unassigned; enantiomer 2) [A(130), Enantiomer 2 of N-[4-(2-{2-cyclopentyl-5-[(5,7-dimethyl[1,2,4]triazolo[1,5-a]pyrimidin-2-yl)methyl]-4-hydroxy-6-oxo-3,6-dihydro-2H-pyran-2-yl}ethyl)-2-ethylbenzyl]methanesulfonamide]
5	CCc1cc(CCC2(C3CCCC3)CC(O)=C(Cc3nc4nc(C)cc(C)n4n3)C(=O)O2)ccc1CNC(C)=O (single isomer, unassigned; enantiomer 2) [A(133), Enantiomer 2 of N-[4-(2-{2-cyclopentyl-5-[(5,7-dimethyl[1,2,4]triazolo[1,5-a]pyrimidin-2-yl)methyl]-4-hydroxy-6-oxo-3,6-dihydro-2H-pyran-2-ylethyl)-2-ethylbenzyl]acetamide]
4	CCc1cc(CCC2(C3CCCC3)CC(O)=C(Cc3nc4nc(C)cc(C)n4n3)C(=O)O2)ccc1-c1ncco1 (single isomer, unassigned; enantiomer 2) [A(139), Enantiomer 2 of 6-Cyclopentyl-3-[(5,7-dimethyl[1,2,4]triazolo[1,5-a]pyrimidin-2-yl)methyl]-6-{2-[3-ethyl-4-(1,3-oxazol-2-yl)phenyl]ethyl}-4-hydroxy-5,6-dihydro-2H-pyran-2-one]
3	CCCOc1cc(O)c(CC)cc1CCC1(C2CCCC2)CC(O)=C(Cc2nc3nc(C)cc(C)n3n2)C(=O)O1 (centres unmarked) [A(1), 6Cyclopentyl-3[(5,7-dimethyl[1,2,4]triazolo[1,5-a]pyrimidin-2-yl)methyl]-6-[2-(5-ethyl-4-hydroxy-2-propoxyphenyl)ethyl]-4-hydroxy-5,6dihydro-2H-pyran-2-one]
620	CCc1cc(CCC2(C3CCCC3)CC(=O)CC(=O)O2)c(OC)cn1 (centres unmarked) [A(2), 6–Cyclopentyl-6-[2-(2-ethyl-5-methoxypyridin-4-yl)ethyl]dihydro-2H-pyran-2,4(3H)-dione]
1	CCc1cc(CCC2(C3CCCC3)CC(O)=C(Cc3nc4nc(C)cc(C)n4n3)C(=O)O2)c(OC)cn1 (centres unmarked) [A(3), 6-Cyclopentyl-3-[(5,7-dimethyl[1,2,4]triazolo[1,5-a]pyrimidin-2-yl)methyl]-6-[2-(2-ethyl-5-methoxypyridin-4-yl)ethyl]-4-hydroxy-5,6-dihydro-2H-pyran-2-one]
